Patent US10829492B2, “Amino pyrazolopyrimidine compound used as neurotrophic factor tyrosine kinase receptor inhibitor” (CHIA TAI TIANQING PHARMACEUTICAL GROUP CO., LTD., priority 2016, dated 2020)

Key:
[1] = target: JAK2 kinase (Homo sapiens (Human), UniProt O60674); assay: HTRF assay for inhibitory activity (IC50) against JAK2 kinase; assay type: biochemical; conditions: ATP 5 μM, kinase 0.05 nM
Experimental: 2. Assay for Inhibitory Activity (IC50) Against JAK2 Kinase
A testing platform for JAK2 kinase activity was established based on Homogeneous Time-Resolved Fluorescence (HTRF) assay, and the activities of the compounds were tested using the platform. The compounds were subjected to three-fold gradient dilution with 100% DMSO with a starting concentration of 1 mM (11 concentrations in total). 4 μL of diluted sample for each concentration was added to 96 μL of reaction buffer (50 mM HEPES, pH7.4, 10 mM MgCl2, 1 mM EDTA, 0.01% Tween-20, 0.005% BSA and 2 mM DTT) and mixed homogeneously. 2.5 μL of the resulting liquid was then added to a 384-well plate (OptiPlate-384, purchased from PerkinElmer), and 5 μL of JAK2 kinase (purchased from Carna, and the final concentration thereof is 0.05 nM) was added, and mixed homogeneously by centrifugation. Then 2.5 μL of a mixture of ATP (the final concentration is 5 μM) and TK peptide (HTRF® KinEASE™-TK, purchased from Cisbio, and the final concentration is 100 nM) was added to initiate the reaction (the total reaction volume is 10 μL). The 384-well plate was placed in an incubator to incubate for 120 min at 23° C. Then the reaction was terminated by adding 5 μL of Eu3+ cryptate-labled anti-phosphotyrosine antibody (purchased from Cisbio), and 5 μL of Streptavidin-XL-665 (HTRF® KinEASE™-TK, purchased from Cisbio). After incubated for 1 hr in the incubator, the fluorescence values were read on Envision (purchased from PerkinElmer). The excitation wavelength was 320 nm, and the emission wavelengths for detection were 665 nm and 620 nm. The enzymatic activity was represented by a ratio of the two readout at the two emission wavelengths. The enzymatic activity for each compound was tested at 11 concentrations, and IC50 values of the compounds were obtained by calculating the data using GraFit6.0 software (Erithacus Software).

[2] = target: TrkC kinase (Homo sapiens (Human), UniProt Q16288); assay: HTRF assay for inhibitory activity (IC50) against NTRK kinase, TrkC; assay type: biochemical; conditions: ATP 20 μM, kinase 1 nM
Chain of TrkC kinase (Q16288 32-839): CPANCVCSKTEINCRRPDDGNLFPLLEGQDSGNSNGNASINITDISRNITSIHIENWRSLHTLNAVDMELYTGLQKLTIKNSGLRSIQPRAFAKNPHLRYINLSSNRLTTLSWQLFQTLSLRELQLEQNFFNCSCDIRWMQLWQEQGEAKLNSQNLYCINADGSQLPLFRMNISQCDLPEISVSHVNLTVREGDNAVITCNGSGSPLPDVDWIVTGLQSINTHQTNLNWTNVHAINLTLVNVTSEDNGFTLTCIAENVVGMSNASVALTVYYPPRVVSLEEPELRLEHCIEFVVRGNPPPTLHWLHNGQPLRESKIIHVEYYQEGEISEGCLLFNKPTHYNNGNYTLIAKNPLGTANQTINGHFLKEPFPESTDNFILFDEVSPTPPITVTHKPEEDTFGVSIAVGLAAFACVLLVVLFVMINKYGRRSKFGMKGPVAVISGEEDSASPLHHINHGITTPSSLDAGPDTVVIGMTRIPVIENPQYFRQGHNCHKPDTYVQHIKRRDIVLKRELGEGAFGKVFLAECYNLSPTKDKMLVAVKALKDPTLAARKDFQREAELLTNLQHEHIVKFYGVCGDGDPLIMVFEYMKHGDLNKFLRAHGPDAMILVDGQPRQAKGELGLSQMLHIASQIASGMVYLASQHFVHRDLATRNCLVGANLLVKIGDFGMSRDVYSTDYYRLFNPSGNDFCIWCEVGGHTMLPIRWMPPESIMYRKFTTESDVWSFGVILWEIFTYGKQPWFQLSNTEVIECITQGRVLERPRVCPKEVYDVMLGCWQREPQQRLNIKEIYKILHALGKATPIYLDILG
Experimental: (§1) 1. Assay for Inhibitory Activity (IC50) Against NTRK Kinase
(§2) A testing platform for TrkA, TrkB and TrkC kinase activity was established based on Homogeneous Time-Resolved Fluorescence (HTRF) assay, and the activities of the compounds were tested using the platform. The compounds were subjected to three-fold gradient dilution with 100% DMSO with a starting concentration of 1 mM (11 concentrations in total). 4 μL of diluted sample for each concentration was added to 96 μL of reaction buffer (50 mM HEPES, pH7.4, 5 mM MgCl2, 1 mM NaVO3, 0.001% Tween-20, 0.01% BSA and 1 mM DTT) and mixed homogeneously to be used as a 4* compound. The reaction buffer was used to formulate 2* TrkA, TrkB and TrkC kinases (purchased from Carna Biosciences 08-186, 08-187, 08-197, and the final concentrations thereof were 0.5 nM, 0.1 nM, and 1 nM, respectively) and 4* substrate mixture (ATP+TK peptide) (wherein the final concentrations of ATP were 40 μM, 50 μM, and 20 μM, respectively; TK peptide, HTRF® KinEASE™-TK, was purchased from Cisbio, and the final concentration thereof was 100 nM) for use. 2.5 μL of the 4* compound was added to a 384-well plate (OptiPlate-384, purchased from PerkinElmer), and then 5 μL of the 2* TrkA, TrkB and TrkC kinases were added, and mixed homogeneously by centrifugation. Then 2.5 μL of the 4* substrate mixture was added to initiate the reaction (the total reaction volume is 10 μL). The 384-well plate was placed in an incubator and incubated for 60 min at 23° C. Then the reaction was terminated by adding 5 μL of Eu3+ cryptate-labeled anti-phosphotyrosine antibody (HTRF® KinEASE™-TK, purchased from Cisbio), and 5 μL of Streptavidin-XL-665 (HTRF® KinEASE™-TK, purchased from Cisbio). After incubated for 1 hr in the incubator, the fluorescence values were read on Envision (purchased from PerkinElmer). The excitation wavelength was 320 nm, and the emission wavelengths for detection were 665 nm and 620 nm. The enzymatic activity was represented by a ratio of the two readout at the two emission wavelengths. The enzymatic activity for each compound was tested at 11 concentrations, and IC50 values of the compounds were obtained by calculating the data using GraFit6.0 software (Erithacus Software).

[3] = target: TrkB kinase (Homo sapiens (Human), UniProt Q16620); assay: HTRF assay for inhibitory activity (IC50) against NTRK kinase, TrkB; assay type: biochemical; conditions: ATP 50 μM, kinase 0.1 nM
Chain of TrkB kinase (Q16620 32-822): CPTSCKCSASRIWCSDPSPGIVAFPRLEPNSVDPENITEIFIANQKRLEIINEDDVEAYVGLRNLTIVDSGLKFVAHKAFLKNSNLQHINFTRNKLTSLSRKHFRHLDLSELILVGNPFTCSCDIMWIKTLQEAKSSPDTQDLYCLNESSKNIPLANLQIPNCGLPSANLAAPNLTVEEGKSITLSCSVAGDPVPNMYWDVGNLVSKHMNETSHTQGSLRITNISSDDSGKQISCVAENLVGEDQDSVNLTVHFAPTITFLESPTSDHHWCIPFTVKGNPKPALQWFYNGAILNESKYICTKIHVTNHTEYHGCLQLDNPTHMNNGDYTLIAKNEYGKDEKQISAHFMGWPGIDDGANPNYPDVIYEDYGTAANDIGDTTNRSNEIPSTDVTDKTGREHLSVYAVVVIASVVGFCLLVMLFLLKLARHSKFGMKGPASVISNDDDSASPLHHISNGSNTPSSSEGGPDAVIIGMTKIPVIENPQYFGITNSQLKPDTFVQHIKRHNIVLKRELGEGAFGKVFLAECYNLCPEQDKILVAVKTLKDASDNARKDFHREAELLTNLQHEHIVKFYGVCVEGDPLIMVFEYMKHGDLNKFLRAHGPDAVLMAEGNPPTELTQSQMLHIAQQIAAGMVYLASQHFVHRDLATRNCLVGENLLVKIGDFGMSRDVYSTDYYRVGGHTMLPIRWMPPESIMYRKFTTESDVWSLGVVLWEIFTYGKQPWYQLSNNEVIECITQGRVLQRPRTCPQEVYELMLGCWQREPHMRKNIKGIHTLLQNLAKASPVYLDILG
Experimental: as §1, §2

[4] = target: TrkA kinase (Homo sapiens (Human), UniProt P04629); assay: HTRF assay for inhibitory activity (IC50) against NTRK kinase, TrkA; assay type: biochemical; conditions: kinase 0.5 nM
Chain of TrkA kinase (P04629 33-796): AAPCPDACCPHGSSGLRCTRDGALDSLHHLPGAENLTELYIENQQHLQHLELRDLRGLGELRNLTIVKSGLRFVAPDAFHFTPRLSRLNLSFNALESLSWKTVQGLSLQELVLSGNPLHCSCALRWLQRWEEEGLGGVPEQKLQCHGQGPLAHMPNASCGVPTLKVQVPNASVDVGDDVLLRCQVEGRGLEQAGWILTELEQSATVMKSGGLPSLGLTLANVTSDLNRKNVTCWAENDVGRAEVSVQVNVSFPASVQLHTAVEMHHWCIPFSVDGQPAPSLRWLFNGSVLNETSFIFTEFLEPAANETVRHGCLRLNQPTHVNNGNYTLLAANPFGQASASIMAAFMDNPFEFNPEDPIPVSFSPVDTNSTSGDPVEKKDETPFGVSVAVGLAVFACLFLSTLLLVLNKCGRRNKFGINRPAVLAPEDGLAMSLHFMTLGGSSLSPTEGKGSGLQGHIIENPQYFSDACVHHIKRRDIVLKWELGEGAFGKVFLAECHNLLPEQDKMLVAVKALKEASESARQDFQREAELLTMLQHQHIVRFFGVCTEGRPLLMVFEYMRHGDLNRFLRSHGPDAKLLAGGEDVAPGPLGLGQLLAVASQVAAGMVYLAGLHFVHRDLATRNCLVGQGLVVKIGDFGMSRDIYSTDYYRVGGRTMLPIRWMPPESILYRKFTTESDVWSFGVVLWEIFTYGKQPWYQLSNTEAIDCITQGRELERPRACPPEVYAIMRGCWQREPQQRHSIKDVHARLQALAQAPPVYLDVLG
Experimental: as §1, §2

[5] = target: TrkA^G667C (Kinase domain) kinase (Homo sapiens (Human), UniProt P04629, G667C); assay: HTRF assay for inhibitory activity (IC50) against TrkA^G667C kinase; assay type: biochemical; conditions: mutant TrkA kinase, ATP 15 μM, kinase 0.5 nM
Chain of TrkA^G667C (Kinase domain) kinase (P04629 510-781 G667C): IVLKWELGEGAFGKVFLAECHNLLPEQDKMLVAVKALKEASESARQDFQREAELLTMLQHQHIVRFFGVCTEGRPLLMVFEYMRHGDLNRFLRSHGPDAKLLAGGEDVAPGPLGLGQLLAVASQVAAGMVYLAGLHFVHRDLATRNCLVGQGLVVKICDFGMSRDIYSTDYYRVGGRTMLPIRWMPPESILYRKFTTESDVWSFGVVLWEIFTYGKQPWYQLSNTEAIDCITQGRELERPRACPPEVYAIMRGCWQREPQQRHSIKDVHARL
Experimental: 3. Assay for Inhibitory Activity (IC50) Against TrkA^G667C Kinase
TrkA^G667C (Kinase domain) kinase was expressed in Sf9 cells (purchased from Invitrogen) using pIEX-Bac-4 (purchased from Merck), and purified by using Ni column affinity chromatography on AKTA Purifier (GE company). A testing platform for TrkA^G667C kinase activity was established based on Homogeneous Time-Resolved Fluorescence (HTRF) assay, and the activities of the compounds were tested using the platform. The compounds were subjected to five-fold gradient dilution with 100% DMSO with a starting concentration of 1 mM (8 concentrations in total). 4 μL of diluted sample for each concentration was added to 96 μL of reaction buffer (50 mM HEPES, pH7.4, 5 mM MgCl2, 1 mM NaVO3, 0.001% Tween-20, 0.01% BSA and 1 mM DTT) and mixed homogeneously to be used as a 4* compound. The reaction buffer was used to formulate 2* TrkA^G667C kinases (the final concentration was 0.5 nM) and a 4* substrate mixture (ATP+TK peptide) (wherein, the final concentration of ATP was 15 μM; TK peptide, HTRF® KinEASE™-TK, was purchased from Cisbio, and the final concentration thereof was 100 nM) for use. 2.5 μL of the 4* compound was added to a 384-well plate (OptiPlate-384, purchased from PerkinElmer), and then 5 μL of the 2* TrkA^G667C kinases were added, and mixed homogeneously by centrifugation. Then 2.5 μL of the 4* substrate mixture was added to initiate the reaction (the total reaction volume is 10 μL). The 384-well plate was placed in an incubator to incubate for 60 min at 23° C. Then the reaction was terminated by adding 5 μL of Eu3+ cryptate-labeled anti-phosphotyrosine antibody (HTRF KinEASE™-TK, purchased from Cisbio), and 5 μL of Streptavidin-XL-665 (HTRF® KinEASE™-TK, purchased from Cisbio). After incubated for 1 h in the incubator, the fluorescence values were read on Envision (purchased from PerkinElmer). The excitation wavelength was 320 nm, and the emission wavelengths for detection were 665 nm and 620 nm. The enzymatic activity was represented by a ratio of the two readout at the two emission wavelengths. […]

[6] = Pharmacokinetic assay in rats; assay type: in vivo; conditions: rat, po, male SD rats, 5 mg/kg single intragastric administration, plasma; for AUC(0-inf): read-out: AUCINF_obs
Experimental: Male SD rats were available from Beijing Vital River Laboratory Animal Technology Co., Ltd. The rats were allocated with three rats per group, and separately administered the suspension of a sample to be tested (5 mg/kg) by single intragastric administration. Before the experiment, the animals were fasted overnight, and the fasting time was from 10 hrs before administration to 4 hrs after administration. After administration, a blood sample was taken at 0.25 hr, 0.5 hr, 1 hr, 2 hrs, 4 hrs, 6 hrs, 8 hrs and 24 hrs. After the animals were narcotized with isoflurane using an anaesthesia machine for small animals, 0.3 mL of whole blood was taken from fundus venous plexus, and placed in a heparin anticoagulant tube. At 4° C., the sample was centrifuged at 4000 rpm for 5 min, and plasma was transferred to a centrifuge tube and preserved at −80° C. until the analysis was started. The sample in plasma was extracted by the protein precipitation method, and the extracted liquid was analyzed by LC/MS/MS.

Chain of JAK2 kinase (O60674 whole entry): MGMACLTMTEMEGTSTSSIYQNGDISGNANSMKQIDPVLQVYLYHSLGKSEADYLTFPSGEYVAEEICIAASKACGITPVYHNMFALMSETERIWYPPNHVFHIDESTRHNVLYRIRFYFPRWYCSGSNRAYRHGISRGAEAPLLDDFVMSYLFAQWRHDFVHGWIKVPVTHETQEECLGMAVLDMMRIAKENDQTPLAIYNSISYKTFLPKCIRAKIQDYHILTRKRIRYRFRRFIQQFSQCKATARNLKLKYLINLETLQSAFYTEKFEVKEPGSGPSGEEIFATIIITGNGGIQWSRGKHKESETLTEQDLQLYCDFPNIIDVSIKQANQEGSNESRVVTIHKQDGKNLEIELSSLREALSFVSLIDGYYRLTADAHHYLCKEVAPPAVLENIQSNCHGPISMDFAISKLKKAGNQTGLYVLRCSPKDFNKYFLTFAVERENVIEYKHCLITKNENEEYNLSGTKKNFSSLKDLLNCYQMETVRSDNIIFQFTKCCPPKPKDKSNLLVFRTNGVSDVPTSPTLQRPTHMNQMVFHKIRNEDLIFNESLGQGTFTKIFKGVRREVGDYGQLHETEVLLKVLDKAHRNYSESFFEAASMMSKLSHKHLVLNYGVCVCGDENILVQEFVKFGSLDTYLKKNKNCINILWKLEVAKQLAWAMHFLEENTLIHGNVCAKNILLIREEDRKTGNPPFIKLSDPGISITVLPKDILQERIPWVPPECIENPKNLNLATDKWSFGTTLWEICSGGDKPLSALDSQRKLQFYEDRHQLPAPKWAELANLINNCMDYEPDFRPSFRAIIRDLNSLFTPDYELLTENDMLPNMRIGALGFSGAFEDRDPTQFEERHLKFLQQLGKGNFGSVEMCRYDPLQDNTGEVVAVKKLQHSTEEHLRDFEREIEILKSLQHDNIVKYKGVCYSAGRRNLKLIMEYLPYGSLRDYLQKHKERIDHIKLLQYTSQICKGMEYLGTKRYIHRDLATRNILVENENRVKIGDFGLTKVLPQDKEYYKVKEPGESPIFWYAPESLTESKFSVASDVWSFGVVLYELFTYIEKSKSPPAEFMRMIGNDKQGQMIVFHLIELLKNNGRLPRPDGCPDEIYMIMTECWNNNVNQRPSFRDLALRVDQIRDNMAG

Row | Compound | IC50 [1] | IC50 [2] | IC50 [3] | IC50 ([4]; Table 1, ATP 40 μM) | IC50 ([4]; Table 2, ATP 40 μM) | IC50 [5] | Cmax [6] | Tmax [6] | half-life [6] | AUC(0-inf) [6]
1 | NC(=O)c1c(N)nn2ccc(N3CCC[C@@H]3c3cc(F)ccc3F)nc12 [Example 4, (R)-2-amino-5-(2-(2,5-difluorophenyl)pyrrolidin-1-yl)pyrazolo[1,5-a]pyrimidine-3-carboxamide] | > 2000 nM | < 10 nM | < 10 nM | < 1 nM | < 1 nM | – | – | – | – | –
2 | Nc1nn2ccc(N3CCC[C@@H]3c3cc(F)ccc3F)nc2c1C(=O)N[C@H]1CC[C@H](O)CC1 [Example 12, 2-amino-5-((R)-2-(2,5-difluorophenyl)pyrrolidin-1-yl)-N-((trans)-4-hydroxycyclohexyl)pyrazolo[1,5-a]pyrimidine-3-carboxamide] | > 20 nM | < 1 nM | < 1 nM | < 1 nM | < 1 nM | < 1 nM | – | – | – | –
3 | Nc1nn2ccc(N3CCC[C@@H]3c3cc(F)ccc3F)nc2c1C(=O)Nc1ccc(F)cc1 [Example 14, (R)-2-amino-5-(2-(2,5-difluorophenyl)pyrrolidin-1-yl)-N-(4-fluorophenyl)pyrazolo[1,5-a]pyrimidine-3-carboxamide] | > 500 nM | < 10 nM | < 10 nM | < 1 nM | < 1 nM | – | – | – | – | –
4 | NC(=O)c1c(N)nn2ccc(N3C[C@@H](F)C[C@@H]3c3cc(F)ccc3F)nc12 [Example 36, 2-amino-5-((2R,4S)-2-(2,5-difluorophenyl)-4-fluoropyrrolidin-1-yl)pyrazolo[1,5-a]pyrimidine-3-carboxamide] | > 100 nM | < 1 nM | < 1 nM | < 1 nM | < 1 nM | < 10 nM | 488 ng/mL | 1 h | 3.09 h | 2240 ng·h/mL

Further lines, results first:

Row | IC50 [1] | IC50 [2] | IC50 [3] | IC50 ([4]; Table 1, ATP 40 μM) | IC50 ([4]; Table 2, ATP 40 μM) | IC50 [5] | Cmax [6] | Tmax [6] | half-life [6] | AUC(0-inf) [6] | Compound
5 | > 10 nM | < 1 nM | < 1 nM | < 1 nM | < 1 nM | < 10 nM | 276 ng/mL | 1.67 h | 1.46 h | 876 ng·h/mL | CNC(=O)c1c(N)nn2ccc(N3C[C@@H](F)C[C@@H]3c3cc(F)ccc3F)nc12 [Example 39, 2-amino-5-((2R,4S)-2-(2,5-difluorophenyl)-4-fluoropyrrolidin-1-yl)-N-methylpyrazolo[1,5-a]pyrimidine-3-carboxamide]
6 | – | – | – | < 1 nM | – | – | – | – | – | – | Nc1nn2ccc(N3C[C@@H](F)C[C@@H]3c3cc(F)ccc3F)nc2c1C(=O)NC1(CO)CC1 [Example 52, 2-amino-5-((2R,4S)-2-(2,5-difluorophenyl)-4-fluoropyrrolidin-1-yl)-N-(1-(hydroxymethyl)cyclopropyl)pyrazolo[1,5-a]pyrimidine-3-carboxamide]
